Assay results as given in patent US20030186946A1, “Suppression of cytotoxic protein conformers” (priority 2002, published 2003).
Like-named read-outs stand apart in the source and are kept apart here.

Columns and labels:
[1] = tested on: RINm5F cells; assay: Cytotoxicity assay in RINm5F cells (calcein-AM / ethidium homodimer-1 staining); conditions: 30 μM peptide, 22 h, compared to vehicle control
Protocol: Cell Culture and Cytotoxicity Assays. RINm5F cells were cultured in RPMI 1640 medium containing 10% fetal bovine serum, 290 μg/mL L-glutamine, 100 IU/mL penicillin and 100 μg/mL streptomycin. Cells were plated at a density of 15×1 cells per well, incubated for 48 h, rinsed with PBS and placed in fresh medium containing Congo red. Freshly prepared human amylin in Milli-Q water, was preincubated with Congo red for 30 min, then added to the cell culture medium to give a final concentration of 30 μM. Cells were treated for 22 h with human amylin in the presence or absence of 100 μM Congo red. Cell viability was determined by double-staining with calcein-AM and ethidium homodimer-1. Green fluorescence of live cells and red fluorescence marking nuclei of dead cells were simultaneously visualized using a Zeiss Axiovert S100 microscope equipped with a Zeiss filter set # 09. Photographs were taken at 400× magnification using a Zeiss AxioCam digital camera.
A. Representative fluorescence micrograph of RINm5F cells treated with 30 μM human amylin for 22 h and stained with calcein-AM and ethidium homodimer-1 to show live cells (green) and dead cells (red). […] B. A representative micrograph of RINm5F cells treated with 30 μM human amylin and 100 μM Congo red stained as above. […] The percentage of live cells was determined for cells treated for 22 h with vehicle; 30 μM human amylin; 30 μM human amylin in the presence of 100 μM Congo red; or 30 μM rat amylin. Experiments were repeated independently 10 times except for human amylin plus Congo red (A+CR) which was repeated five times. Error bars represent the s.e.m of live and dead cell counts over 6-12 fields per condition.

[2] = target: T1, human amylin (Homo sapiens, UniProt P10997); assay: Radiolabelled precipitation assay of amylin fibril formation; assay type: biochemical; set-up: Amylin is a 37-residue; C-terminally amidated peptide having a disulfide bridge between the cysteines at residues 2 and 7; purchased Bachem Calif; (Torrance, Calif.); host or cells: chemical synthesis; conditions: 200 μM compound, 10 μM human amylin, 16,000×g (FIG. 8)
T1 sequence (P10997 34-70 limits assumed): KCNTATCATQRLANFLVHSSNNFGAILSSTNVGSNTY
Protocol: Radiolabelled Precipitation Assays. The precipitation of radiolabelled human and rat amylin fibrils was used as an independent method to monitor assembly of amylin fibrils in the presence or absence of potential inhibitors of amylin fibril formation. […] Incubation mixtures were then centrifuged at either 16,000×g or 100,000×g, for 20 min, and the amount of [^3H]-human amylin remaining in the supernatant after centrifugation was determined (Beckman LSW 3801 β-counter, USA). Results were expressed as percentages of precipitable counts per minute, relative to total radioactivity in the supernatant.
Incorporation of [^3H]-amylin into amylin fibrils was followed for 24 hours. Human amylin fibrils were precipitated by centrifugation at either 16,000×g (FIG. 7A) or at 100,000×g (FIG. 7B). Rat amylin (10 μM) in the presence of [^3H]-rat amylin was used as a non-fibril forming control (♦) (FIG. 7A). The results are shown as the percentage of precipitable radioactive amylin, relative to total radioactivity in the supernatant at each time point. Each data point represents the mean±s.e.m of three separate reactions.
The incorporation of radioactive monomeric amylin into the human amylin fibrils as they form, can be used to measure the rate at which amylin fibrils form in the presence or absence of a potential inhibitory drug. Amylin fibrils can be separated from solution by centrifugation and the amount of radioactive amylin precipitated in the amylin fibril pellet is then used as a measure of the amount of amylin fibrils present at that time.
Thioflavin-T, although not polycyclic, is widely used in fluorescent assays to measure amylin fibril formation. Incorporation of radioactivity into the pellet of an aliquot of the reaction mixture centrifuged at 16,000×g, for 20 minutes was monitored over the time periods indicated. Rat amylin (10 μM) with [^3H]-rat amylin added was used as a non fibril forming control (∘) in each experiment. The results are shown as the percentage of precipitable radioactive amyloid, relative to total radioactivity in the supernatant at each time point. Each data point represents the mean±s.e.m of three separate experiments.

[3] = target: T1, human amylin; assay: Electron microscopy of human amylin fibrils; assay type: biochemical; set-up: Amylin is a 37-residue; C-terminally amidated peptide having a disulfide bridge between the cysteines at residues 2 and 7; purchased Bachem Calif; (Torrance, Calif.); host or cells: chemical synthesis
Protocol: Electron Microscopy. […] Samples were removed at various time points and prepared for electron microscopy. Aliquots (8 μl) of the amylin fibril preparations were absorbed to glow-discharged carbon-coated collodion film on 200-mesh copper grids for 1 min. Grids were blotted, washed twice in droplets of deionised water and stained with 2% (w/v) uranyl acetate. Grids were examined in a Phillips Technai transmission electron microscope operated at 120 kV.
Samples were removed at various time points and prepared for electron microscopy according to the procedure described in the methods.
Electron Microscopy of human amylin fibrils in the presence and absence of quinacrine (FIG. 5). A 100 fold molar excess of quinacrine was incubated with human amylin. Samples were removed at various time points and prepared for electron microscopy according to the procedure described in the methods.
Electron Microscopy of human amylin fibrils in the presence and absence of selected polycyclic compounds (FIG. 6). […] Samples were removed and prepared for electron microscopy as described in the Methods. All experiments were performed in triplicate and the pictures above are representative of at least 6 photographs taken at each magnification.

[4] = target: T1, human amylin; conditions: 10 μM thioflavin-T; for enhancement of thioflavin-T fluorescence by human amylin: 1200 μM compound (20-fold molar excess), 60 μM human amylin, over 24 h (FIG. 3)
Protocol: Thioflavin-T binding fluorescent assays. The effects of various polycyclic compounds on islet amyloid formation were measured by fluorescence spectroscopy, using a SpectraMAX Gemini XS Fluorescence Spectrophotometer (Molecular Devices Corporation, Sunnyvale, Calif.). Excitation and emission maxima were set to 450 nm and 510 nm respectively using a cutoff filter at 495 nm. Thioflavin-T binds to amylin fibrils, but not to monomeric amylin (Goldsbury et al., (1999), J. Mol. Biol., 285:33-39). […] The rate of amylin fibril formation was determined by following thioflavin-T fluorescence in the presence or absence of the potential inhibitory drug. […] Background fluorescence by acridine and acridine orange in the absence of amylin was subtracted from the experimental results. The control preparation contained human amylin and thioflavin-T in the absence of drug. The rate of fluorescence enhancement under these conditions was used to compare amylin fibril formation in the absence and presence of the drug. All other experimental conditions were identical.
Tri-prolyl amylin and rat amylin with thioflavin-T were also used as additional controls.
Each data point represents the mean±s.e.m of three separate reactions.
Effect of chlorpromazine on enhancement of thioflavin-Tfluorescence by human amylin (FIG. 2). Chlorpromazine (700 μM) (π) was incubated in 10 mM tris p H 7.4, with monomeric human amylin (70 μM) in the presence of thioflavin-T (10 μM). The fluorescence of the reaction was monitored over 24 hours as described in the methods. […] Each data point represents the mean±s.e.m of three separate reactions.
Effect of selected polycylic compounds on enhancement of thioflavin-Tfluorescence by human amylin (FIG. 3). Acridine, acridine orange, neutral red and methylene blue are selected examples of fused tricyclic ring compounds. […] Compound structures are shown adjacent to the appropriate graph. […] Fluorescence was monitored over 24 h as described in the Methods. A preparation containing human amylin and thioflavin-T only (▪), was included as a comparison in the absence of drug. […] Each data point represents the mean±s.e.m of three independent experiments.

[5] = target: T1, human amylin; assay: Circular dichroism assay of amylin conformation; assay type: biochemical; set-up: Amylin is a 37-residue; C-terminally amidated peptide having a disulfide bridge between the cysteines at residues 2 and 7; purchased Bachem Calif; (Torrance, Calif.); host or cells: chemical synthesis; conditions: 200 μM Amaranth, approximately 4 μM human amylin, 4% HFIP (FIG. 9F)
Protocol: Preparation of monomeric human amylin. Human amylin (batch 0551805) was obtained from Bachem (Torrence, Calif.). Stock solutions of amylin were prepared as described by Padrick and Miranker, 2002. Human amylin was solubilised in 6M guanidine HCL/50 mM potassium phosphate, pH 6.0, and loaded onto a C18 reversed-phase spin column (Harvard Biosciences). The column was then washed sequentially with 10% Acetonitrile, 0.2% trifluoroacetic acid and water. Monomeric amylin was eluted in 100% HFIP (hexafluoroisopropanol). This stock solution of amylin was then used for all Circular Dichroism experiments.
Circular Dichroism Assay. Circular dichroism spectra were measured on a Pi-Star 180 spectrometer (Applied Photophysics, Leatherhead, UK). Measurements were carried out in either 100% HFIP or 100 mM potassium chloride/50 mM potassium phosphate buffer (pH 7.4) and 2.5% HFIP at 25° C. A stock solution of monomeric human amylin was diluted into buffer to a final concentration of 2.5% HFIP and approximately 5 μM amylin to initiate amylin fibril formation. Spectra were collected at 1 nm intervals with a sample period of 25 μs and adaptive sampling of ±0.01 mdeg. Measurements were recorded immediately following addition of the human amylin stock solution to phosphate buffer in the presence or absence of Congo red or amaranth.
Human amylin (100 μg) was purified on a C18 spin column to give a stock solution in 100% HFIP as described in the methods. A spectrum of this stock solution was collected at 1 nm intervals in a 0.1 cm path length quartz cell (FIG. 9B). The stock solution of monomeric amylin in 100% HFIP was diluted to 2.5% HFIP in 100 mM potassium chloride/50 mM potassium phosphate buffer (pH 7.4). Human amylin concentration was approximately 5 μM. A spectrum was collected at 1 nm intervals in a 0.5 cm path length quartz cell in the absence (FIG. 9C) or presence of 20-fold molar excess of Congo red over human amylin (FIG. 9D). The stock solution of monomeric amylin in 100% HFIP was diluted to 4% HFIP in 100 mM potassium chloride/50 mM potassium phosphate buffer (pH 7.4) containing decreasing concentrations of Congo red as indicated in the Figure. Human amylin concentration was approximately 4 μM. Spectra were collected at 1 nm intervals in a 0.1 cm path length quartz cell (FIG. 9E). The stock solution of monomeric amylin in 100% HFIP was diluted to 4% HFIP in 100 mM potassium chloride/50 mM potassium phosphate buffer (pH 7.4) containing 200 μM Amaranth. Human amylin concentration was approximately 4 μM. Spectra were collected at 1 nm intervals in a 0.1 cm path length quartz cell (FIG. 9F).

Q: How did the “cytotoxicity of amylin peptide to RINm5F cells” value [1] turn out when human amylin was run?
A: Its value is “significant increase in cell death”.

Q: With `Cc1ccc2c(c1)sc(-c1ccc(N(C)C)cc1)[n+]2C.[Cl-]` [thioflavin-T] as the compound, how does the “effect on precipitable amyloid formation” value [2] read?
A: Its value is “no effects on amyloid formation”.

Q: Which “rate of human amylin fibril formation (electron microscopy)” value ([3]; 7000 μM quinacrine, 70 μM human amylin, 1.5, 5 and 26 hours) does the source give for `CCN(CC)CCCC(C)Nc1c2ccc(Cl)cc2nc2ccc(OC)cc12` (stereo not shown) [quinacrine] here?
A: The value was “appears to slow the rate of human amylin fibril formation”.

Q: What about the “morphology of human amylin fibrils (electron microscopy)” value ([3]; 7000 μM quinacrine, 70 μM human amylin, 5 hours and 26 hours) of the same compound?
A: The value was “large aggregates with few defined fibrils”.

Q: For `c1ccc2nc3ccccc3cc2c1` [acridine], which “effect on precipitable amyloid formation” value [2] is on record?
A: The value was “no effects on amyloid formation”.

Q: And the “enhancement of thioflavin-T fluorescence by human amylin” value (“enhancement” for short) [4]?
A: The value was “moderate reduction in thioflavin-T enhanced fluorescence”.

Q: How did the “cytotoxicity of amylin peptide to RINm5F cells” value [1] turn out when “rat amylin: synthetic rat amylin from Bachem; non-fibril forming control” was run?
A: Its value is “not cytotoxic”.

Q: For `CN(C)c1ccc2nc3ccc(N(C)C)cc3[s+]c2c1` [methylene blue], which “effect on precipitable amyloid formation” value [2] is on record?
A: Its value is “no effects on amyloid formation”.

Q: And the “effect on precipitable amyloid formation” value ([2]; listed as Methylene blue)?
A: The value was “no effect”.

Q: And the “enhancement” value [4]?
A: Its value is “no increase in thioflavin-T enhanced fluorescence”.

Q: And the “enhancement” value ([4]; listed as Methylene blue)?
A: The value was “complete inhibition”.

Q: How did the “effect on β-conformer formation of human amylin (circular dichroism)” value [5] turn out when `O=S(=O)([O-])c1ccc2c(N=Nc3ccc(S(=O)(=O)[O-])c4ccccc34)c(O)c(S(=O)(=O)[O-])cc2c1.[Na+].[Na+].[Na+]` [Amaranth] was run?
A: Its value is “prevents formation of β-conformers and instead arrests the amylin peptide in an α-helical conformation”.

Q: For `CN(C)CCCN1c2ccccc2Sc2ccc(Cl)cc21` [chlorpromazine], which “morphology of human amylin fibrils (electron microscopy)” value ([3]; 1200 μM compound, 60 μM human amylin, 10 mM tris pH 7.4, 24 h (FIG. 6)) is on record?
A: Its value is “still formed characteristic amylin fibrils”.

Q: What about the “effect on precipitable amyloid formation” value [2] of the same compound?
A: The value was “no effects on amyloid formation”.

Q: What about the “inhibition of amylin fibril formation” value ([4]; 700 μM chlorpromazine, 70 μM human amylin, over 24 hours (FIG. 2)) of the same compound?
A: Its value is “approximately 60%”.

Q: What about the “enhancement” value [4] of the same compound?
A: Its value is “little inhibition of amylin fibril associated thioflavin-T fluorescence enhancement”.
